The source of these data is US20100311714A1, “1H-IMIDAZO[4,5-c]QUINOLINONE COMPOUNDS” (priority 2009, published 2010).

Data set [1] concerns PKB Ser473 phosphorylation in Rat1-myr-HA-p110 beta cells. Briefly: Reverse protein array, PKB Ser473 phosphorylation in Rat1-myr-HA-p110 beta cells. It is filed as cell-based. The conditions noted are these: Rattus norvegicus, 0.5 h, 30 minutes compound incubation, read-out: p-PKB/IC50_beta. Here is the method: (§1) No. 15140-114) and 10 μg/ml Puromycine (Sigma, cat. No. P9620).
(§2) The Rat1-myr-HA-p110 alpha, beta and delta cells were trypsinized and counted with a CASY TT cell counter (Schärfe System GmbH, Reutlingen Germany). The cells were diluted in fresh DMEM complete medium and 3×10^4 cells/150 μl/well seeded in 96-well TPP-tissue culture plates (TPP, cat. No. 92096). The plates were incubated at 37° C. and 5% CO2 under humidified condition for at least 20 h. Compound of formula I working solutions were prepared freshly as serial 8 step dilutions (vol/vol) in DMSO on the day of the experiment. The working solutions were further diluted 1/500 in cell culture medium to get final compound concentrations of 10, 3.333, 1.111, 0.370, 0.123, 0.041, 0.014, 0.005 μM. The final DMSO concentration was kept constant at 0.2%. cell culture medium containing 0.2% DMSO was used as vehicle treatment control. Post incubation, the cells were treated with the serial compound dilution. 50 μl of the compound medium mixture was added to the wells containing cells and 150 μl DMEM medium and incubated for 30 minutes (37° C., 5% CO2). After 30 minutes of incubation, the medium mixture was quickly removed by aspiration. For cell lysis, a mixture of 10% CLB1 CeLyA lysis buffer (Zeptosens, cat. No. 9000), 90% CSBL1 CeLyA spotting buffer (Zeptosens, cat. No. 9020) was freshly prepared and supplemented with 1% Octyl β-D-glucopyranoside (SIGMA, cat. No. 08001-5G) and 1 mM Na-Orthovanadate (Sigma, cat No. S-6508). 50 μl of the described lysis buffer mix was added to each well, followed by 10 minutes of incubation on ice. After an additional freeze-thaw cycle, another 50 μl of the lysis buffer mix without Octyl β-D-glucopyranoside was added to the wells, and 90 μl of the cell lysate was transferred to a 96-well V-bottom plate (Fisher Scientific, cat. No. 6067Y), followed by a centrifugation step (5 min, 1500 rpm at 19° C. in an Eppendorf 5810R centrifuge) to remove the unlysed cell debris.
(§3) The samples were spotted onto ZeptoMARK® PWG protein microarray chips (Zeptosens, Witterswil, Switzerland) with the piezoelectric microdispense-based, non-contact Nano-Plotter 2.1 (GeSiM, Grosserkmannsdorf, Germany). Each sample was spotted at 4 different sample concentrations (d1=100%, d2=75%, d3=50%, d4=25%) by diluting the cell lysate with the corresponding volume of lysis buffer mix. After spotting the ZeptoMARK® protein microarrays, the chips are incubated for 1 hour at 37° C. To receive a uniform blocking result, the CeLyA blocking buffer BB1 (Zeptosens, cat. No. 9040) is administered via an ultrasonic nebulizer. After 20 minutes of blocking the chips are extensively rinsed with deionized water (Milli-Q quality, 18MΩ×cm) and dried in a nitrogen air flow.
(§4) After the sample spotting and blocking procedure, the ZeptoMARK® chips were transferred to the ZeptoCARRIER (Zeptosens, cat. No. 1100), whose six flow cells individually address the six arrays on a chip, and washed twice with 200 μl CAB1 CeLyA assay buffer (Zeptosens, cat. No. 9032). The assay buffer was then aspirated and each compartment incubated with 100 μl of the primary target antibody (pAkt Ser473; CST#9271) at RT over night. Post incubation, the primary antibody was removed, the arrays washed twice with CAB1 buffer and further incubated with 100 μl of Alexa fluor 647-labeled anti rabbit IgG Fab fragments (Invitrogen; #Z25305) for one hour at RT in the dark. After incubation, the arrays were washed twice with 200 μl CAB1 buffer. The fluorescence of the target-bound Fab fragments is read out on the ZeptoReader (Zeptosens, Witterswil, Switzerland) using a laser (excitation wavelength 635 nm) and a CCD camera. The fluorescence signal was assessed with exposure times of 1, 3, 5 and 10 seconds, depending on the intensity of the signal. The resulting four images taken per array are stored as 16-bit TIF files. […]

A short description of data set [2]: High-throughput equilibrium solubility at pH 6.8. It is filed as physicochemical. The conditions noted are these: pH 6.8, aqueous buffer, thermodynamic from solid; read-out: HT-Eq Sol/pH 6.8. The source says: (§5) The physicochemical properties of relevance for the absorption of the compound, such as the solubility and the membrane permeability, especially at a pH close to neutral pH can be measured using the procedure as described by L. ZHOU et al. in JOURNAL OF PHARMACEUTICAL SCIENCES, VOL. 96, NO. 11, p. 3052-3071 (2007) for the solubility at pH 6.8 and the procedure as described by F. Wohnsland and B. Faller in Journal of Medicinal Chemistry Vol 44, p. 923-930 (2001) for the Parallel Artificial Membrane Permeability Assay (PAMPA) at pH 6.8.

A short description of data set [3]: Parallel Artificial Membrane Permeability Assay (PAMPA) at pH 6.8. It is filed as physicochemical.
From the text: as §5
The following permeability log Pe was measured for compound of formula (I) as exemplified below: […]
On the technique in general: The PAMPA barrier holds no transporters, so it reflects passive diffusion.

Data set [4] has as its system PKB Ser473 phosphorylation in Rat1-myr-HA-p110 delta cells. Nature of the data set: Reverse protein array, PKB Ser473 phosphorylation in Rat1-myr-HA-p110 delta cells. It is filed as cell-based. The conditions noted are these: Rattus norvegicus, 0.5 h, 30 minutes compound incubation, read-out: p-PKB/IC50_delta. Here is the method: as §1, §2, §3, §4
Data set [5] relates to PKB Ser473 phosphorylation in Rat1-myr-HA-p110 alpha cells. Nature of the data set: Reverse protein array, PKB Ser473 phosphorylation in Rat1-myr-HA-p110 alpha cells. Type of data set: cell-based. The conditions noted are these: Rattus norvegicus, 0.5 h, 30 minutes compound incubation, read-out: p-PKB/IC50_alpha. Here is the method:
as §1, §2, §3, §4

For data set [6], the system named is S6 Ribosomal Protein phosphorylation Ser235/236 in TSC1 null mouse embryo fibroblast (MEF) cells. Briefly: Reverse protein array, S6 Ribosomal Protein phosphorylation in TSC1 null MEF cells. The conditions noted are these: 1 h, TSC1-/- MEFs, 60 minutes, read-out: p-S6 IC50. Type of data set: cell-based. The protocol:
TSC1−/− MEFs cells (provided by D. Kwiatkowski), were cultivated in Dulbecco's modified Eagle's medium (DMEM high Glucose, GIBCO, cat. No. 41956-039) supplemented with 10% heat inactivated fetal bovine calf serum (Amimed, cat. No. 2-01F16-I), 1% L-Glutamine (Invitrogen, cat. No. 25030-02), 1% penicillin-streptomycin (GIBCO, cat. No. 15140-114) at 37° C. in a 5% CO2 and 95% relative humidity atmosphere incubator.
The TSC1−/− cells were trypsinized and counted with a CASY TT cell counter (Schärfe System GmbH, Reutlingen Germany). The cells were diluted in fresh DMEM complete medium and 0.75×10^4 cells/150 μl/well seeded in 96-well TPP-tissue culture plates (TPP, cat. No. 92096). The plates were incubated at 37° C. and 5% CO2 under humidified condition for at least 20 h. Working solutions were prepared freshly as serial 8 step dilutions (vol/vol) in DMSO on the day of the experiment. The working solutions were further diluted 1/5000 in cell culture medium to get final compound concentrations of […]. The final DMSO concentration was kept constant at 0.02%. cell culture medium containing 0.02% DMSO was used as vehicle treatment control. Post incubation, the cells were treated with the serial compound dilution. 50 μl of the compound medium mixture was added to the wells containing cells and 150 μl DMEM medium and incubated for 60 minutes (37° C., 5% CO2). After 60 minutes of incubation, the medium mixture was quickly removed by aspiration. For cell lysis, a mixture of 10% CLB1 CeLyA lysis buffer (Zeptosens, cat. No. 9000), 90% CSBL1 CeLyA spotting buffer (Zeptosens, cat. No. 9020) was freshly prepared and supplemented with 1% Octyl β-D-glucopyranoside (SIGMA, cat. No. 08001-5G) and 1 mM Na-Orthovanadate (Sigma, cat No. S-6508). 50 μl of the described lysis buffer mix was added to each well, followed by 10 minutes of incubation on ice. After an additional freeze-thaw cycle, another 50 μl of the lysis buffer mix without Octyl β-D-glucopyranoside was added to the wells, and 90 μl of the cell lysate was transferred to a 96-well V-bottom plate (Fisher Scientific, cat. No. 6067Y), followed by a centrifugation step (5 min, 1500 rpm at 19° C. in an Eppendorf 5810R centrifuge) to remove the unlysed cell debris.
The spotting of the chips follows the previous described method.
The signal detection and the data analysis follows the previous described method using the pS6 ribosomal protein Ser235/236 (CST, cat. No. #2211) as a primary antibody.

Converted amounts (≈) assume the structure as drawn.

Regarding `COCCOc1cncc(-c2ccc3ncc4c(c3c2)n(-c2cccnc2C)c(=O)n4C)c1` [Example 2.17, 8-[5-(2-Methoxy-ethoxy)-pyridin-3-yl]-3-methyl-1-(2-methyl-pyridin-3-yl)-1,3-dihydro-imidazo[4,5-c]quinolin-2-one], the IC50 in data set [1] was 491 nM; in data set [4] it was 803 nM; in data set [5], 85.6 nM. Also, the solubility thermodynamic in data set [2] was > 441 µg/mL. In addition, the “HT-perm/logPe pH6.8” value in data set [3] is on record as −4.8.

Regarding `Cc1cccnc1-n1c(=O)n(C)c2cnc3ccc(-c4cnc5[nH]ccc5c4)cc3c21` [Example 3.2, 3-Methyl-1-(3-methyl-pyridin-2-yl)-8-(1H-pyrrolo[2,3-b]pyridin-5-yl)-1,3-dihydro-imidazo[4,5-c]quinolin-2-one], the figures for the IC50 in data set [1], in data set [4] and in data set [5] were 74.1 nM, 109 nM and 58.5 nM, respectively. Also, the solubility thermodynamic in data set [2] came to 14 µg/mL (≈ 34.4 µM). The “HT-perm/logPe pH6.8” value in data set [3] is recorded as −5.0.

For the molecule `Cc1cccnc1-n1c(=O)n(C)c2cnc3ccc(-c4ccc(OCCCN(C)C)nc4)cc3c21` [Example 3.7, 8-[6-(3-Dimethylamino-propoxy)-pyridin-3-yl]-3-methyl-1-(3-methyl-pyridin-2-yl)-1,3-dihydro-imidazo[4,5-c]quinolin-2-one], the solubility thermodynamic in data set [2] was > 469 µg/mL. Besides, the IC50 in data set [5] was determined as 398 nM.

Regarding `Cc1ccncc1-n1c(=O)n(C)c2cnc3ccc(-c4ccc(N(C)C)nc4)cc3c21` [Example 4.4, 8-(6-Dimethylamino-pyridin-3-yl)-3-methyl-1-(4-methyl-pyridin-3-yl)-1,3-dihydro-imidazo[4,5-c]quinolin-2-one], the IC50 was found to be 300 nM in data set [1], 894 nM in data set [4] and 167 nM in data set [5]. Moreover, the solubility thermodynamic in data set [2] amounted to 2 µg/mL (≈ 4.87 µM). In addition, the “HT-perm/logPe pH6.8” value in data set [3] is recorded as −3.8.

Take `COc1nc(N2CCNCC2)ccc1-n1c(=O)n(C)c2cnc3ccc(-c4cnc5c(ccn5C)c4)cc3c21` [Example 9.3, 1-(2-Methoxy-6-piperazin-1-yl-pyridin-3-yl)-3-methyl-8-(1-methyl-1H-pyrrolo[2,3-b]pyridin-5-yl)-1,3-dihydro-imidazo[4,5-c]quinolin-2-one]: the IC50 in data set [1] came out at 9.39 nM; in data set [4] it was 52.9 nM; in data set [5], 6.5 nM. Besides, in data set [2], the solubility thermodynamic came out at 21 µg/mL (≈ 40.3 µM).

Turning to `CNc1ncc(-c2ccc3ncc4c(c3c2)n(-c2ccc(OC)nc2Cl)c(=O)n4C)cn1` [Example 18.2, 1-(2-Chloro-6-methoxy-pyridin-3-yl)-3-methyl-8-(2-methylamino-pyrimidin-5-yl)-1,3-dihydro-imidazo[4,5-c]quinolin-2-one], the IC50 in data set [1] was 7 nM; in data set [4], 12.2 nM; in data set [5], 7.8 nM; in data set [6] it was 1 nM. The solubility thermodynamic in data set [2] was found to be 3 µg/mL (≈ 6.7 µM). Further, the “HT-Perm logPe pH6.8” value in data set [3] is on record as −3.5.
